SMILES strings stand for the structures. Activity calls are given as the source filed them. No rule for the calls is given here.

This assay has as its system Saccharomyces cerevisiae lifespan shortening, growth inhibition. Briefly: yeast lifespan shortening compounds, dose response (AID 849).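 Also: yeast growth read as optical density after two days at 30 degrees C.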
As a reminder, the IC50 is the concentration that gives 50% inhibition. For the molecule `Oc1ccc(Cl)cc1Cc1cc(Cl)ccc1O`, the IC50 was 21 µM.
Take `Cc1ccc(C(=O)Oc2ccc(Cl)c3cccnc23)cc1[N+](=O)[O-]`: the IC50 is 47.4 µM.
In the case of `Cc1nn2c3ccccc3nc2c2ccccc12`, the IC50 is 41.6 µM.
Next, `Oc1c(I)cc(I)c2cccnc12`: 23.9 µM; `Cc1cccc(-c2nnc3sc(-c4ccccc4C)nn23)c1`: > 100 µM (inactive); `CN1CCN(Cc2cc(COCc3ccccc3)c3cccnc3c2O)CC1`: 26 µM.
Under `COc1ccccc1OCC(=O)n1cc(C(=O)c2cc(Cl)cc(Cl)c2O)cn1` stands 5.95 µM; under `O=C(O)c1ccccc1Nc1ccc([N+](=O)[O-])cc1`, 10.8 µM.
Next, `CC(=O)N1CCN(c2ccc(OC[C@H]3CO[C@](Cn4ccnc4)(c4ccc(Cl)cc4Cl)O3)cc2)CC1`: 9.27 µM; `Clc1ccc2nnnc(-c3ccccc3)c2c1`: 38.8 µM.
Take `O=c1[nH][nH]cc1C=Nc1ccccc1O`: the IC50 is > 100 µM (inactive).
With `CCCCc1ccc(NS(=O)(=O)c2cccs2)cc1`, the IC50 was 35.3 µM.
Next, `O=c1[nH]c(Nc2ccccc2)cc2ccccc12`: > 100 µM (inactive).
Under `COc1ccc(-c2nnc3c4ccccc4c(C)nn23)cc1` stands > 100 µM (inactive); under `CN1CSC(=S)N(C)C1`, 17.3 µM.
Under `COc1ccccc1N1CCN(C(CNC(=O)c2ccco2)c2cccnc2)CC1` (stereo not drawn) stands > 100 µM (inactive); under `C=CCN1C(=O)/C(=C/c2cccs2)C(=O)NC1=S`, 17.6 µM; under `CCOc1cc(C2CC(=O)N3CN(C4CCCCC4)CSC3=C2C#N)ccc1O` (stereo not drawn), > 100 µM (inactive).
Take `C=C(C)COc1ccc(-c2[nH]ncc2-c2ccccc2)c(O)c1`: the concentration for half-maximal inhibition (IC50) is 20.4 µM.
Next, `COc1cc(/C=C2/C(=O)ON=C2c2ccccc2)ccc1O`: 8.49 µM.
In the case of `CC(C)CNC(=O)CN(C1CCCCC1)S(C)(=O)=O`, the IC50 is > 100 µM (inactive).
Take `CSC1=NSC2=NC(=O)/C(=C/c3coc4ccccc4c3=O)C(=N)N12`: the concentration for half-maximal inhibition (IC50) is 44.1 µM.
Take `Cc1nc(Cl)c2oc3ccccc3c2n1`: the IC50 was > 100 µM (inactive).
`CC1(CCc2ccccc2)NC(=S)N(c2ccc(Cl)cc2)N1` (stereo not drawn): the IC50 is 42 µM.
Under `C/C(=N\Nc1ccc(Cl)cc1)c1ccccn1` stands 43.5 µM; under `Cc1cc(-c2ccco2)c(C#N)c2nc3ccccc3n12`, 5.77 µM; under `CCN1/C(=C(\O)c2ccccc2)C(=O)c2ccccc2S1(=O)=O`, > 100 µM (inactive).
Under `O=c1c2ccccc2nc2c3ccccc3c3nncn3n12` stands 49.9 µM.
Under `O=[N+]([O-])c1ccc(N=Nc2ccc(O)cc2O)cc1` stands 32 µM; under `OC(CNCCC1C=Nc2ccccc21)Cn1c2ccc(Cl)cc2c2cc(Cl)ccc21` (stereo not drawn), 20 µM.
Turning to `CN(C)CCNC=C(C(=O)Nc1ccc(Cl)cc1Cl)C(=O)Nc1ccc(Cl)cc1Cl`, the half-maximal inhibitory concentration (IC50) is 23.9 µM.
On to `CCn1c(Sc2nc(C)nc3scc(-c4cccs4)c23)n[nH]c1=O`, for which the IC50 is > 100 µM (inactive).
Next, `Nc1c(C(=O)NCCc2ccccc2)c2nc3ccccc3nc2n1CCN1CCOCC1`: 22.3 µM; `CCC(C)NC(=O)CS(=O)Cc1nc(-c2ccccc2C)oc1C` (stereo not drawn): > 100 µM (inactive); `Clc1cccc(CN2COc3c(cc(Cl)c4cccnc34)C2)c1`: 7.28 µM.
As for `NNC(=O)c1cccc(COc2ccc(Br)cc2)c1`, the IC50 is 41.9 µM.
Consider `Cc1cc2sc(C(=O)O)c(C)c2s1`, for which the IC50 is 41.6 µM.
`Cc1cccc(C(=O)CC(=O)c2cc(Cl)ccc2O)c1`: the IC50 is 45.7 µM.
With `Cc1ccc(-n2nnc3c(=O)n(CC(=O)N4CCC(C)CC4)cnc32)cc1`, the IC50 was > 100 µM (inactive).
`Cc1cccc(Cn2ncc(Cl)c(Cl)c2=O)c1`: the IC50 was 37.4 µM.
Under `CC(C)(C)c1cc(NCCCn2ccnc2)n2ncc(-c3ccc(Cl)cc3)c2n1` stands > 100 µM (inactive); under `Cn1c(SCC(=O)N/N=C/c2ccc([N+](=O)[O-])s2)nnc1-c1ccc(Cl)cc1`, 25.3 µM; under `C=CCc1c(C)c(C#N)c2nc3ccccc3n2c1NCCN(C)C`, 44.5 µM.
In the case of `CC1(C)C[C@H]2C=C(C=O)[C@]3(C=O)C[C@]3(C)[C@H]2C1`, the IC50 is 5.25 µM.
Regarding `Cc1cc(C(=O)COC(=O)c2ccc[nH]c2=O)c(C)n1-c1ccc(F)cc1`, the IC50 was 43 µM.
Under `O=C(OCn1ncc(Cl)c(Cl)c1=O)c1cccc(C(F)(F)F)c1` stands > 100 µM (inactive); under `O=C(OCn1ncc(Br)c(Br)c1=O)c1ccccc1Cl`, > 100 µM (inactive).
As to `Cc1ccc(-c2[nH]nc(N)c2N=Nc2ccccc2C)cc1`, the IC50 was > 100 µM (inactive).
`CC(C)(C)c1ccc(-c2nc(-c3ccncc3)no2)cc1`: the 50% inhibitory concentration (IC50) was 23.1 µM.
Under `c1ccc2c(c1)C(=Nn1cnnc1)c1ccccc1-2` stands > 100 µM (inactive).
Regarding `N#CSCC(=O)c1cccc2ccccc12`, the half-maximal inhibitory concentration (IC50) was 8.65 µM.
With `O=C1C(=C2CCCCC2)SC(=S)N1Cc1ccco1`, the IC50 is > 100 µM (inactive).
For `O=C(N/N=C/c1sc2ccccc2c1O)c1cccc2ccccc12`, the 50% inhibitory concentration (IC50) is 21 µM.
On to `N/C(Cc1ccccc1)=N\OC(=O)c1cccc2ccccc12`, for which the half-maximal inhibitory concentration (IC50) is 10.8 µM.
Consider `COc1ccc(-c2[nH]ncc2-c2ccc(Cl)cc2)c(O)c1`, for which the IC50 is > 100 µM (inactive).
Under `Cc1cc(C)c2c(N=NN3CCCCC3)[nH]nc2n1` stands 5.02 µM.
Turning to `Cc1ccc(N/N=C(\C#N)C(N)=S)c(C)c1`, the IC50 was > 100 µM (inactive).
`c1cn2cc(-c3ccc4c(c3)OCO4)nc2s1`: the IC50 was > 100 µM (inactive).
Under `CC(=O)/C(=N\Nc1ccc(C)cc1)N1CCOCC1` stands 11.1 µM.
For the molecule `Cc1nc2ccc(C(=O)O)cc2[nH]1`, the IC50 was > 100 µM (inactive).
As to `CC(C)C(=O)NC(c1ccccc1)c1cc([N+](=O)[O-])c2cccnc2c1O` (stereo not drawn), the concentration for half-maximal inhibition (IC50) was 14.2 µM.
With `CCCCCCCCCCn1c2c(c(=N)c3c1CCC3)CCC2`, the IC50 is 9.12 µM.
Under `CCSc1nc2ccccc2n1S(=O)(=O)c1ccccc1` stands > 100 µM (inactive).
Next, `CC1=C(C)CC2C(=O)N(c3cccc4ccccc34)C(=O)C2C1` (stereo not drawn): > 100 µM (inactive).
Consider `CC(C)(C)n1nc(-c2ccc(Cl)cc2)c2c(N)ncnc21`, for which the IC50 is 20.7 µM.
Under `O=C(Nc1cccc(N=Cc2cc(Cl)cc(Br)c2O)c1)c1ccco1` stands > 100 µM (inactive); under `Cc1cc(N2CCN(c3cccc(C)c3C)CC2)nc(-c2ccccc2)n1`, 35.4 µM; under `Cc1ccc(N2NC(C)(c3cccs3)NC2=S)cc1` (stereo not drawn), > 100 µM (inactive).
Next, `CCCc1ccc(Oc2c(-c3ccc(O)c(C)c3O)n[nH]c2C)cc1`: 7.01 µM.
Under `COc1ccccc1-n1c(=O)oc2ccc(Cl)cc2c1=O` stands > 100 µM (inactive).
With `c1ccc(-c2nc3c(ccc4ccccc43)[nH]2)nc1`, the concentration for half-maximal inhibition (IC50) is 30.7 µM.
Take `COc1ccc(OC)c(-c2c3cc(O)c(=O)cc-3oc3cc(O)c(O)cc23)c1`: the IC50 was 30.1 µM.
With `CCCc1cc(C(=O)NC2CCCCC2)no1`, the IC50 is > 100 µM (inactive).

Source of the values: PubChem BioAssay AID849 (SRMLSC, 2007).
